In general, pIC50 refers to the negative decadic logarithm of the IC50, by convention in mol/L. A word on the inhibition: it is the relative decrease from the control value, in per cent.

pIC50: −log10 of the molar value.

Experimental findings from patent US20070197590A1, “SUBSTITUTED DIPIPERIDINE CCR2 ANTAGONISTS” (priority 2006, published 2007) are described below.

The target in the first test is T1, CCR2 (Homo sapiens, UniProt P41597).
T1 construct: host or cells: THP-1 cells
T1 sequence (P41597 1-360 isoform P41597-2): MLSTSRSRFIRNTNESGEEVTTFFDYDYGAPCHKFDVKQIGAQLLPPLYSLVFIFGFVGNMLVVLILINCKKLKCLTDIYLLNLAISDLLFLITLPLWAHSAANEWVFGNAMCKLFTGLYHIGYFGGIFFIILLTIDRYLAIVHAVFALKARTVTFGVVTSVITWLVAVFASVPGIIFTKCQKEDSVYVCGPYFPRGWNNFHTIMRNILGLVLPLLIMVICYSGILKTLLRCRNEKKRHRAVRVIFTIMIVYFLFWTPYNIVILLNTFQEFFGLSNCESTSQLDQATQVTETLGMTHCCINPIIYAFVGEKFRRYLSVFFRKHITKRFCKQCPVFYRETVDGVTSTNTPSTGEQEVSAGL
Description: MCP-1 Receptor Binding Assay in THP-1 Cells. The conditions noted are these: THP-1 cells, 0.5 nM 125I labeled MCP-1, 2 hours at 30° C.; read-out: Inhibition of MCP-1 Binding IC50. The procedure:
THP-1 cells were obtained from American Type Culture Collection (Manassas, Va., USA). The THP-1 cells were grown in RPMI-1640 supplemented with 10% fetal bovine serum in a humidified 5% CO2 atmosphere at 37° C. The cell density was maintained […].
THP-1 cells were incubated with 0.5 nM ^125, labeled MCP-1 (Perkin-Elmer Life Sciences, Inc. Boston, Mass.) in the presence of varying concentrations of either unlabeled MCP-1 (R & D Systems, Minneapolis, Minn.) or test compound for 2 hours at 30° C. in a 96 well plate. Cells were then harvested onto a filter plate, dried, and 20 μL of Microscint 20 was added to each well. Plates were counted in a TopCount NXT, Microplate Scintillation & Luminescence Counter (Perkin-Elmer Life Sciences, Inc. Boston, Mass.). Blank values (buffer only) were subtracted from all values and drug treated values were compared to vehicle treated values. 1 μM cold MCP-1 was used for nonspecific binding.
Table 1 lists IC50 values for inhibition of MCP-1 binding to CCR2 obtained for test compounds of the invention.
Turning to `O=C(C(=O)N1CCC(c2ccc(Cl)cc2)CC1)C1CCN(C(=O)C=Cc2ccc(Cl)c(Cl)c2)CC1` [Compound 2, 1-[4-(4-chloro-phenyl)-piperidin-1-yl]-2-{1-[3-(3,4-dichloro-phenyl)-acryloyl]-piperidin-4-yl}-ethane-1,2-dione], the negative-log IC50 (pIC50) was 5.36.
For `O=C(/C=C/c1ccc(Cl)c(Cl)c1)N1CCC(C(O)C(=O)N2CCC(c3ccc(Cl)cc3)CC2)CC1` (stereo not shown) [Compound 3], the negative-log IC50 (pIC50) is 5.47.
Regarding `O=C(c1cc(F)c(F)c(F)c1)N1CCC(C(O)CN2CCC(c3c[nH]c4ccccc34)CC2)CC1` (stereo not shown) [Compound 8, (4-{1-hydroxy-2-[4-(1H-indol-3-yl)-piperidin-1-yl]-ethyl}-piperidin-1-yl)-(3,4,5-trifluoro-phenyl)-methanone], the negative logarithm of the IC50 (pIC50) is 5.19.
As to `O=C(CN1CCC(c2c[nH]c3ncccc23)CC1)C1CCN(C(=O)/C=C/c2cc(F)c(F)c(F)c2)CC1` [Compound 17, 1-(4-{2-[4-(1H-pyrrolo[2,3-b]pyridin-3-yl)-piperidin-1-yl]-acetyl}-piperidin-1-yl)-3-(3,4,5-trifluoro-phenyl)-propenone], the pIC50 was 5.03.
For the compound `Cc1cccc(/C=C/C(=O)N2CCC(C(O)CN3CCC(c4cc[nH]n4)CC3)CC2)c1` (stereo not shown) [Compound 33], the pIC50 is 5.85.
The same measure, in the same setting: the figure for `O=C(/C=C/c1cc(F)c(F)c(F)c1)N1CCC(C(O)CN2CCC(c3cc[nH]n3)CC2)CC1` (stereo not shown) [Compound 35] is 5.92; for `O=C(Nc1ccc(Cl)c(Cl)c1)N1CCC(C(O)CN2CCC(c3cc[nH]n3)CC2)CC1` (stereo not shown) [Compound 36, 4-{1-hydroxy-2-[4-(1H-pyrazol-3-yl)-piperidin-1-yl]-ethyl}-piperidine-1-carboxylic acid (3,4-dichloro-phenyl)-amide] it is 5.96; for `O=C(Nc1ccc(F)c(F)c1)N1CCC(C(O)CN2CCC(c3cc[nH]n3)CC2)CC1` (stereo not shown) [Compound 37, 4-{1-hydroxy-2-[4-(1H-pyrazol-3-yl)-piperidin-1-yl]-ethyl}-piperidine-1-carboxylic acid (3,4-difluoro-phenyl)-amide] it is 5.07.
With `CCOC(=O)C(CN1CCC(c2ccc(OC)cc2)CC1)C1CCN(C(=O)C=Cc2cc(F)c(F)c(F)c2)CC1` (stereo not shown) [Compound 38, 3-[4-(4-methoxy-phenyl)-piperidin-1-yl]-2-{1-[3-(3,4,5-trifluoro-phenyl)-acryloyl]-piperidin-4-yl}-propionic acid ethyl ester], the pIC50 is 5.33.
In the case of `O=C(/C=C/c1cc(F)cc(F)c1)N1CCC(C(O)CN2CCC(c3nc4ccccc4o3)CC2)CC1` (stereo not shown) [Compound 46], the negative logarithm of the IC50 (pIC50) is 5.68.
For the compound `Cc1cccc(/C=C/C(=O)N2CCC(C(O)CN3CCC(c4nc5ccccc5o4)CC3)CC2)c1` (stereo not shown) [Compound 47], the pIC50 was 5.41.
As to `O=C(/C=C/c1cc(F)cc(F)c1)N1CCC(CC(CO)N2CCC(c3c[nH]c4ccccc34)CC2)CC1` (stereo not shown) [Compound 54], the pIC50 is 5.25.
On to `O=C(/C=C/c1cc(F)c(F)c(F)c1)N1CCC(CC(CO)N2CCC(c3c[nH]c4ccccc34)CC2)CC1` (stereo not shown) [Compound 55], for which the negative logarithm of the IC50 (pIC50) is 5.46.
On to `O=C(/C=C/c1ccc(Cl)c(Cl)c1)N1CCC(CC(CO)N2CCC(c3c[nH]c4ccccc34)CC2)CC1` (stereo not shown) [Compound 56], for which the pIC50 is 5.24.
In the case of `Cc1cccc(/C=C/C(=O)N2CCC(CC(CO)N3CCC(c4c[nH]c5ccccc45)CC3)CC2)c1` (stereo not shown) [Compound 57], the pIC50 was 5.59.
In the case of `OCC(CC1CCN(C(=S)Nc2cccc(Br)c2)CC1)N1CCC(c2c[nH]c3ccccc23)CC1` (stereo not shown) [Compound 59, 4-{3-hydroxy-2-[4-(1H-indol-3-yl)-piperidin-1-yl]-propyl}-piperidine-1-carbothioic acid (3-bromo-phenyl)-amide], the pIC50 is 5.21.
Take `COc1ccc(C2CCN(CC(=O)C3CCN(C(=O)/C=C/c4cc(F)c(F)c(F)c4)CC3)CC2)cc1` [Compound 64, 1-(4-{2-[4-(4-methoxy-phenyl)-piperidin-1-yl]-acetyl}-piperidin-1-yl)-3-(3,4,5-trifluoro-phenyl)-propenone]: the pIC50 is 5.89.
Take `COc1ccc(C2CCN(CC(NC(=O)N(C)C)C3CCN(C(=O)C=Cc4cc(F)c(F)c(F)c4)CC3)CC2)cc1` (stereo not shown) [Compound 68, 3-(2-[4-(4-methoxy-phenyl)-piperidin-1-yl]-1-{1-[3-(3,4,5-trifluoro-phenyl)-acryloyl]-piperidin-4-yl}-ethyl)-1,1-dimethyl-urea]: the negative logarithm of the IC50 (pIC50) was 5.57.
Consider `O=C(OCc1ccccc1)N1CCC(O)(C(O)CN2CCC(c3c[nH]c4ccccc34)CC2)CC1` (stereo not shown) [Compound 69, 4-hydroxy-4-{1-hydroxy-2-[4-(1H-indol-3-yl)-piperidin-1-yl]-ethyl}-piperidine-1-carboxylic acid benzyl ester], for which the pIC50 was 6.02.
Turning to `O=C(/C=C/c1cc(C(F)(F)F)cc(C(F)(F)F)c1)N1CCC(O)(C(O)CN2CCC(c3c[nH]c4ccccc34)CC2)CC1` (stereo not shown) [Compound 72], the pIC50 is 6.15.
`OC(CN1CCC(c2c[nH]c3ccccc23)CC1)C1(O)CCN(C(=S)Nc2cc(Cl)cc(Cl)c2)CC1` (stereo not shown) [Compound 83, 4-hydroxy-4-{1-hydroxy-2-[4-(1H-indol-3-yl)-piperidin-1-yl]-ethyl}-piperidine-1-carbothioic acid (3,5-dichloro-phenyl)-amide]: the pIC50 was 6.07.

The same test, now with this note: test concentration of 25 μM; given where an IC50 value was not obtained; read-out: Inhibition of MCP-1 Binding, percent inhibition.
For the compound `COc1ccc(C2CCN(CC(C(=O)O)C3CCN(C(=O)C=Cc4cc(F)c(F)c(F)c4)CC3)CC2)cc1` (stereo not shown) [Compound 39, 3-[4-(4-methoxy-phenyl)-piperidin-1-yl]-2-{1-[3-(3,4,5-trifluoro-phenyl)-acryloyl]-piperidin-4-yl}-propionic acid], the inhibition at 25 µM is 52%.
As to `CCOC(=O)C(CC1CCN(C(=O)C=Cc2cccc(C)c2)CC1)N1CCC(c2c[nH]c3ccccc23)CC1` (stereo not shown) [Compound 48, 2-[4-(1H-indol-3-yl)-piperidin-1-yl]-3-[1-(3-m-tolyl-acryloyl)-piperidin-4-yl]-propionic acid ethyl ester], the inhibition at 25 µM came out at 48%.
On the same count and under the same terms, to `CCOC(=O)C(CC1CCN(C(=O)C=Cc2ccc(Cl)c(Cl)c2)CC1)N1CCC(c2c[nH]c3ccccc23)CC1` (stereo not shown) [Compound 49, 3-{1-[3-(3,4-dichloro-phenyl)-acryloyl]-piperidin-4-yl}-2-[4-(1H-indol-3-yl)-piperidin-1-yl]-propionic acid ethyl ester] belongs 40%; to `CCOC(=O)C(CC1CCN(C(=O)C=Cc2cc(F)c(F)c(F)c2)CC1)N1CCC(c2c[nH]c3ccccc23)CC1` (stereo not shown) [Compound 50, 2-[4-(1H-indol-3-yl)-piperidin-1-yl]-3-{1-[3-(3,4,5-trifluoro-phenyl)-acryloyl]-piperidin-4-yl}-propionic acid ethyl ester], 44%; to `CCOC(=O)C(CC1CCN(C(=O)C=Cc2cc(F)cc(F)c2)CC1)N1CCC(c2c[nH]c3ccccc23)CC1` (stereo not shown) [Compound 51, 3-{1-[3-(3,5-difluoro-phenyl)-acryloyl]-piperidin-4-yl}-2-[4-(1H-indol-3-yl)-piperidin-1-yl]-propionic acid ethyl ester], 48%.
As to `CCOC(=O)C(CC1CCN(C(=O)Nc2ccc(Cl)c(Cl)c2)CC1)N1CCC(c2c[nH]c3ccccc23)CC1` (stereo not shown) [Compound 52, 3-[1-(3,4-dichloro-phenylcarbamoyl)-piperidin-4-yl]-2-[4-(1H-indol-3-yl)-piperidin-1-yl]-propionic acid ethyl ester], the inhibition at 25 µM was 53%.
Regarding `Cc1cccc(C=CC(=O)N2CCC(CC(C(=O)O)N3CCC(c4c[nH]c5ccccc45)CC3)CC2)c1` (stereo not shown) [Compound 53, 2-[4-(1H-indol-3-yl)-piperidin-1-yl]-3-[1-(3-m-tolyl-acryloyl)-piperidin-4-yl]-propionic acid], the inhibition at 25 µM came out at 48%.
As for `O=C(O)C(CC1CCN(C(=O)Nc2ccc(Cl)c(Cl)c2)CC1)N1CCC(c2c[nH]c3ccccc23)CC1` (stereo not shown) [Compound 62, 3-[1-(3,4-dichloro-phenylcarbamoyl)-piperidin-4-yl]-2-[4-(1H-indol-3-yl)-piperidin-1-yl]-propionic acid], the inhibition at 25 µM stood at 55%.
For `CC(C)(C)OC(=O)N1CCC(C(O)CN2CCC(c3c[nH]c4ccc(NS(C)(=O)=O)cc34)CC2)CC1` (stereo not shown) [Compound 63, 4-{1-hydroxy-2-[4-(5-methanesulfonylamino-1H-indol-3-yl)-piperidin-1-yl]-ethyl}-piperidine-1-carboxylic acid tert-butyl ester], the inhibition at 25 µM came out at 46%.
In the case of `COc1ccc(C2CCN(CC(O)C3CCN(C(=O)Nc4cc(Cl)c(Cl)cc4F)CC3)CC2)cc1` (stereo not shown) [Compound 90, 4-{1-hydroxy-2-[4-(4-methoxy-phenyl)-piperidin-1-yl]-ethyl}-piperidine-1-carboxylic acid (4,5-dichloro-2-fluoro-phenyl)-amide], the inhibition at 25 µM was found to be 87%.
